Experimental data published in ChEMBL document CHEMBL2150920, “Discovery of a potent and selective small molecule hGPR91 antagonist” (Bioorg Med Chem Lett, 2011).

What was measured:
[1] = Volume of distribution at steady state in Wistar rat at 5 mg/kg, iv; assay type: ADME, organism-based; set-up: dose 5 mg/kg, route intravenous; settings: in vivo, read-out: Vdss
Rattus norvegicus [2] = experiment: Hypotensive activity in Wistar rat assessed as inhibition of succinate-induced increase in mean arterial pressure at 50 mg/kg, ip after 2 hrs post dose; assay type: functional; settings: Artery, route intraperitoneal
[3] = Plasma clearance in Wistar rat at 5 mg/kg, iv; assay type: ADME, organism-based; set-up: dose 5 mg/kg, route intravenous
[4] = Tmax in Wistar rat at 50 mg/kg, ip; assay type: ADME, organism-based; set-up: dose 50 mg/kg, route intraperitoneal; settings: in vivo
[5] = Plasma concentration in Wistar rat plasma at 50 mg/kg, ip at 2 hrs; assay type: ADME, organism-based; set-up: dose 50 mg/kg, route intraperitoneal
[6] = Plasma protein binding in Wistar rat at 50 mg/kg, ip; assay type: ADME, organism-based; set-up: dose 50 mg/kg, route intraperitoneal; settings: read-out: PPB
Succinate receptor 1 [7] = biological target: T1, Succinate receptor 1 (Rattus norvegicus, UniProt Q6IYF9); experiment: Antagonist activity at rat GPR91 receptor expressed in CHO-K1 cells co-expressing Galpha and Gqi5 G-protein assessed as inhibition of succinate-induced increase in intracellular calcium level by FLIPR assay; assay type: functional, cell-based
T1 sequence (Q6IYF9 whole entry): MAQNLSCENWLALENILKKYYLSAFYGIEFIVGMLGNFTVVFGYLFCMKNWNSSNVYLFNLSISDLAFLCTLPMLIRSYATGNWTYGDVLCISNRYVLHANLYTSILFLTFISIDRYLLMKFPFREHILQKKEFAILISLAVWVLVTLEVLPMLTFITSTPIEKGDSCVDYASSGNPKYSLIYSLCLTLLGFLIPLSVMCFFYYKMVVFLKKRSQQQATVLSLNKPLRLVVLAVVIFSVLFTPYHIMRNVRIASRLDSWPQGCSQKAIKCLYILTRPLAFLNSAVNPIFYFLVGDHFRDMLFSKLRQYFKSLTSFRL

[8] = Drug concentration in Wistar rat kidney at 50 mg/kg, ip after 4 hrs; assay type: ADME, organism-based; set-up: dose 50 mg/kg, route intraperitoneal; settings: read-out: Drug uptake
[9] = Terminal half life in Wistar rat at 5 mg/kg, iv; assay type: ADME, organism-based; set-up: dose 5 mg/kg, route intravenous; settings: in vivo, read-out: beta t1/2 (converted)
[10] = Plasma concentration in Wistar rat plasma at 50 mg/kg, ip at 4 hrs; assay type: ADME, organism-based; set-up: dose 50 mg/kg, route intraperitoneal
[11] = Plasma concentration in Wistar rat plasma at 50 mg/kg, ip at 8 hrs; assay type: ADME, organism-based; set-up: dose 50 mg/kg, route intraperitoneal
Liver microsomes = experiment: Intrinsic clearance in rat liver microsomes preincubated for 5 mins before addition of NADPH measured after 30 mins by LC/MS/MS analysis; assay type: ADME, Microsome; settings: 0.5 h
[12] = Cmax in Wistar rat at 5 mg/kg, iv by LC/MS/MS analysis; assay type: ADME, organism-based; set-up: dose 5 mg/kg, route intravenous; settings: in vivo
[13] = biological target: 2-oxoglutarate receptor 1 (Homo sapiens, UniProt Q96P68); experiment: Antagonist activity at human GPR99 receptor expressed in CHO-K1 cells co-expressing Galpha and Gqi5 G-protein assessed as inhibition of succinate-induced increase in intracellular calcium level at by FLIPR assay; assay type: functional, cell-based
2-oxoglutarate receptor 1, sequence (Q96P68 whole entry, looked up): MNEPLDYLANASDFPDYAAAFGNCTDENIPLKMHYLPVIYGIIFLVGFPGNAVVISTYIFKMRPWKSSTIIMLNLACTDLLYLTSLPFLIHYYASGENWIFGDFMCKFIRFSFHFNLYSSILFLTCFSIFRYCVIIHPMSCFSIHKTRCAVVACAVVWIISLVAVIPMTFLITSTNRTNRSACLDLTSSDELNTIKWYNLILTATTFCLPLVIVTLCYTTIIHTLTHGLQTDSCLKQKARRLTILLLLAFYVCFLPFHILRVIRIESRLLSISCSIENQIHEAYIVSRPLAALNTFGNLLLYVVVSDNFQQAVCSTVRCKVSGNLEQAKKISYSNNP

[14] = Cmax in Wistar rat at 50 mg/kg, ip by LC/MS/MS analysis; assay type: ADME, organism-based; set-up: dose 50 mg/kg, route intraperitoneal; settings: in vivo
Rattus norvegicus [15] = experiment: Hypotensive activity in Wistar rat assessed as inhibition of succinate-induced increase in mean arterial pressure at 50 mg/kg, ip after 4 hrs post dose; assay type: functional; settings: Artery, route intraperitoneal
Succinate receptor 1 [16] = biological target: T2, Succinate receptor 1 (Homo sapiens, UniProt Q9BXA5); experiment: Antagonist activity at human GPR91 receptor expressed in CHO-K1 cells co-expressing Galpha and Gqi5 G-protein assessed as inhibition of succinate-induced increase in intracellular calcium level by FLIPR assay; assay type: functional, cell-based
T2 sequence (Q9BXA5 whole entry): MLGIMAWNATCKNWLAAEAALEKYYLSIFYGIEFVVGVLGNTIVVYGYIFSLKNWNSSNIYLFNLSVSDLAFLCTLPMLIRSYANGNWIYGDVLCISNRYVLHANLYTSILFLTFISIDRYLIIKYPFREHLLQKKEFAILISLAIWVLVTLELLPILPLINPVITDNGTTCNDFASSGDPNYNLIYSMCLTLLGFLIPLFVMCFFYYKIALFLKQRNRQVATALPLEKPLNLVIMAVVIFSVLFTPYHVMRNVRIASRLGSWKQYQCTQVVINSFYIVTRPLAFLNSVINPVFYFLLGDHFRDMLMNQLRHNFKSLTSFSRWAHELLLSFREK

[17] = AUC (0 to 8 hrs) in Wistar rat plasma at 50 mg/kg, ip; assay type: ADME, organism-based; set-up: time < 8 hr, dose 50 mg/kg, route intraperitoneal
[18] = Cmax in Wistar rat at 30 mg/kg, po by LC/MS/MS analysis; assay type: ADME, organism-based; set-up: dose 30 mg/kg, route oral; settings: in vivo
[19] = Oral bioavailability in Wistar rat plasma at 30 mg/kg; assay type: ADME, organism-based
[20] = Plasma concentration in Wistar rat plasma at 30 mg/kg, po at 2 hrs; assay type: ADME, organism-based; set-up: dose 30 mg/kg, route oral
[21] = Tmax in Wistar rat at 30 mg/kg, po; assay type: ADME, organism-based; set-up: dose 30 mg/kg, route oral; settings: in vivo
[22] = Terminal half life in Wistar rat plasma at 30 mg/kg, po; assay type: ADME, organism-based; set-up: dose 30 mg/kg, route oral; settings: read-out: beta t1/2 (converted)
[23] = AUC (0 to 24 hrs) in Wistar rat plasma at 30 mg/kg, po; assay type: ADME, organism-based; set-up: time < 24 hr, dose 30 mg/kg, route oral
[24] = Plasma concentration in Wistar rat plasma at 30 mg/kg, po at 4 hrs; assay type: ADME, organism-based; set-up: dose 30 mg/kg, route oral
B1 bradykinin receptor = biological target: T3, B1 bradykinin receptor (Homo sapiens, UniProt P46663); experiment: Antagonist activity at human bradykinin B1 receptor expressed in […] cells assessed as inhibition of calcium flux by FLIPR assay; assay type: functional, cell-based
T3 sequence (P46663 whole entry): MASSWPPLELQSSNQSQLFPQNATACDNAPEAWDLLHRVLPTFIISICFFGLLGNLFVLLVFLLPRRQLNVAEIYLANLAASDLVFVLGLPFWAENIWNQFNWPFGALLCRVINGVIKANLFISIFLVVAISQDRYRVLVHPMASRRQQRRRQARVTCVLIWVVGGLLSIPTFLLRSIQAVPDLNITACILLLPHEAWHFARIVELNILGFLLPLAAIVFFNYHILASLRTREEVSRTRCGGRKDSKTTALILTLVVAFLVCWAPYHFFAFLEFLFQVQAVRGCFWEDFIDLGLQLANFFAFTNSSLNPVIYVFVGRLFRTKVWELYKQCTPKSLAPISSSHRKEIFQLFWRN

[25] = Plasma protein binding in Wistar rat at 100 mg/kg, ip; assay type: ADME, organism-based; set-up: dose 100 mg/kg, route intraperitoneal; settings: read-out: PPB
Kidney = experiment: Drug concentration in Wistar rat kidney at 100 mg/kg, ip; assay type: ADME, organism-based; set-up: dose 100 mg/kg, route intraperitoneal; settings: in vivo, read-out: Drug uptake
[26] = Plasma concentration in Wistar rat plasma at 100 mg/kg, ip at 8 hrs; assay type: ADME, organism-based; set-up: dose 100 mg/kg, route intraperitoneal
[27] = Plasma clearance in Wistar rat at 3 mg/kg, iv; assay type: ADME, organism-based; set-up: dose 3 mg/kg, route intravenous
[28] = Cmax in Wistar rat at 3 mg/kg, iv by LC/MS/MS analysis; assay type: ADME, organism-based; set-up: dose 3 mg/kg, route intravenous; settings: in vivo
[29] = AUC (0 to 24 hrs) in Wistar rat plasma at 100 mg/kg, ip; assay type: ADME, organism-based; set-up: time < 24 hr, dose 100 mg/kg, route intraperitoneal
[30] = Plasma concentration in Wistar rat plasma at 100 mg/kg, ip at 2 hrs; assay type: ADME, organism-based; set-up: dose 100 mg/kg, route intraperitoneal
Rattus norvegicus [31] = experiment: Hypotensive activity in Wistar rat assessed as inhibition of succinate-induced increase in mean arterial pressure at 100 mg/kg, ip after 2 hrs post dose; assay type: functional; settings: Artery, route intraperitoneal
[32] = Tmax in Wistar rat at 100 mg/kg, ip; assay type: ADME, organism-based; set-up: dose 100 mg/kg, route intraperitoneal; settings: in vivo
[33] = Plasma concentration in Wistar rat plasma at 100 mg/kg, ip at 4 hrs; assay type: ADME, organism-based; set-up: dose 100 mg/kg, route intraperitoneal
[34] = Volume of distribution at steady state in Wistar rat at 3 mg/kg, iv; assay type: ADME, organism-based; set-up: dose 3 mg/kg, route intravenous; settings: in vivo, read-out: Vdss
[35] = Cmax in Wistar rat at 100 mg/kg, ip by LC/MS/MS analysis; assay type: ADME, organism-based; set-up: dose 100 mg/kg, route intraperitoneal; settings: in vivo
Rattus norvegicus [36] = experiment: Hypotensive activity in Wistar rat assessed as inhibition of succinate-induced increase in mean arterial pressure at 100 mg/kg, ip after 4 hrs post dose; assay type: functional; settings: Artery, route intraperitoneal
[37] = Terminal half life in Wistar rat at 3 mg/kg, iv; assay type: ADME, organism-based; set-up: dose 3 mg/kg, route intravenous; settings: in vivo, read-out: beta t1/2 (converted)

Row | Structure (SMILES) | Vd [1] | clearance [3] | Tmax [4] | concentration at 2 h [5] | IC50 (Succinate receptor 1 [7]) | half-life [9] | concentration at 4 h [10] | concentration at 8 h [11] | Intrinsic clearance (Liver microsomes) | Cmax [12] | IC50 [13] | Cmax [14] | IC50 (Succinate receptor 1 [16]) | AUC(0-t) at 8 h [17] | Cmax [18] | bioavailability [19] | concentration at 2 h [20] | Tmax [21] | half-life [22] | AUC(0-t) at 24 h [23] | further results
1 | Cc1cccc(-c2ccc(CNC(=O)CCCc3ccc4cccnc4n3)cc2)c1 | 0.5 L/kg | 64.7 mL/min/kg | 1.8 h | 1.8 µM | 7 nM | 0.1 h | 2 µM | 1.1 µM | 1.2 nmol/min/mg | 19 µM | > 30000 nM | 3.7 µM | 30 nM | 17.4 µM·h | – | – | – | – | – | – | inhibition in vivo at 50 mg/kg (Rattus norvegicus [2]): 71%; fraction unbound [6]: 0.01; concentration at 4 h [8]: 7 µM; inhibition in vivo at 50 mg/kg (Rattus norvegicus [15]): 67%
2 | O=C(CCCc1ccc2cccnc2n1)NCc1cc(-c2ccc(F)c(C(F)(F)F)c2)no1 | 0.36 L/kg | 4.7 mL/min/kg | 2 h | 22 µM | 135 nM | 1.1 h | 19 µM | 19 µM | 0.12 nmol/min/mg | 40 µM | > 30000 nM | 22 µM | 35 nM | 267 µM·h | 37 µM | 26% | 11.3 µM | 0.5 h | 0.9 h | 69 µM·h | concentration at 4 h [24]: 2.6 µM
3 | FC(F)(F)Oc1ccc(-c2nnc(CCCCc3ccc4cccnc4n3)o2)cc1Cl | 0.2 L/kg | 2 mL/min/kg | – | – | – | 1.3 h | – | – | 0.17 nmol/min/mg | 56 µM | > 20000 nM | – | 180 nM | – | 72 µM | 87% | 70 µM | 1.5 h | 3.4 h | 472 µM·h | concentration at 4 h [24]: 40.5 µM
4 | FC(F)(F)c1cc(-c2nnc(CCCCc3ccc4cccnc4n3)o2)ccc1Cl | 0.1 L/kg | 4.8 mL/min/kg | 2.7 h | 19 µM | 435 nM | 0.3 h | 20 µM | 15 µM | 0.3 nmol/min/mg | 92 µM | > 30000 nM | 21 µM | 160 nM | 304 µM·h | – | – | – | – | – | – | –
5 | COC(=O)c1c(F)cccc1-c1ccc(CNC(=O)CCCc2ccc3cccnc3n2)c(F)c1 | – | – | – | – | – | – | – | – | 0.7 nmol/min/mg | – | – | – | 800 nM | – | – | – | – | – | – | – | IC50 (B1 bradykinin receptor): 2500 nM
6 | C[C@H](NC(=O)Cc1ccc(-c2ccc3cccnc3n2)cc1)c1ccc(-c2ccc(F)c(C(F)(F)F)c2)cc1 | – | – | – | – | – | – | – | – | 0.2 nmol/min/mg | – | > 30000 nM | – | 7 nM | – | – | – | – | – | – | – | fraction unbound [25]: 0.01; concentration (Kidney): 8 µM; concentration at 8 h [26]: 0.28 µM; clearance [27]: 36 mL/min/kg; Cmax [28]: 9.8 µM; AUC(0-t) at 24 h [29]: 4.3 µM·h; concentration at 2 h [30]: 0.24 µM; inhibition in vivo at 100 mg/kg (Rattus norvegicus [31]): 59%; Tmax [32]: 4.9 h; concentration at 4 h [33]: 0.33 µM; Vd [34]: 1 L/kg; Cmax [35]: 0.4 µM; inhibition in vivo at 100 mg/kg (Rattus norvegicus [36]): 76%; half-life [37]: 0.9 h
